From patent publication US20110189260A1, “USE OF ZINC CHELATORS TO INHIBIT BIOFILM FORMATION” (UNIVERSITY OF CINCINNATI, priority 2008, published 2011)
Several values for one entry are separate records, joined by “and”; a condition that tells them apart may be missing. Equal values may be shown once. Entries after “also recorded” stand apart in the source; their conditions may differ.

B1: MBP-Brpt1.5: soluble Brpt1.5 as a maltose-binding protein (MBP) fusion (protein)
chain: VDGDSITSTEEIPFDKKREFDPNLAPGTEKVVQKGEPGTKTITTPTTKNPLTGEKVGEGEPTEKITKQPVDEIVHYGGEQIPQGHKDEFDPNAPVDSKTEVPGKPGVKNPDTGEVVTPPVDDVTKYGPVDGDSITSTEEIPFDKKREFDPNLAPGTEKVVQKGEPGTKTITTPTTKNPLTGEKVGEGKSTEKVTKQPVDEIVEYGPTK
modifications: left off: large carriers

Assays:
[1] = system: S. epidermidis RP62A biofilms; test: RP62A biofilms on polystyrene visualized with crystal violet (FIG. 3A, 3C, 4, 7, 8); format: cell-based; conditions: RP62A; for effect of divalent cation salt on biofilm inhibition by DTPA: up to 60 μM salt, FIG. 7
Description: (§1) FIG. 3. (A) S. epidermidis RP62A biofilms formed on polystyrene and were visualized with crystal violet; addition of the Zn^2+ chelator DTPA (≧30 μM) inhibits biofilm formation. Representative wells have been scanned (bottom). Untreated (“RP62A”) and vehicle (“HCl”) controls are shown. Error bars show standard deviation (* indicates p<0.05 relative to untreated control; n=3); (B) Methicillin-resistant S. aureus USA300 biofilms form on fibronectin-coated plates but are inhibited by addition of DTPA (≧30 μM). (*: p<0.05; n=4); (C) Addition of 5-20 μM ZnCl2 at a minimal inhibitory dose of DTPA (30 μM) rescues biofilm formation by RP62A.
FIG. 4. […] (*: p<0.05 relative to RP62A control at the relevant Zn^2+ concentration; n=3); (B) Dose response of biofilm inhibition by MBP-Brpt1.5 at a fixed 1 mM ZnCl2 concentration. (*: p<0.0005; n=3); (C) The “zinc zipper” model for intercellular adhesion in staphylococcal biofilms mediated by zinc-dependent self-association of G5 domains.
FIG. 7. […] All data at 30 μM DTPA show statistically significant decreases compared to no-treatment control (RP62A). Statistically significant increases over the 0 μM MnCl2/30 μM DTPA datapoint are marked with an asterisk (*).
To test the physiological role of Zn^2+-mediated G5 adhesion in the formation of staphylococcal biofilms, both S. epidermidis and S. aureus biofilms were grown in culture in the presence or absence of the Zn^2+ chelator diethylenetriaminepentaacetic acid (DTPA). DTPA was non-toxic at all concentrations tested (up to 100 μM). S. epidermidis strain RP62A formed robust biofilms when cultured in media alone, but biofilm growth was inhibited by non-toxic doses of DTPA (≧30 μM) (FIG. 3A).
To determine whether Zn^2+-dependent biofilm formation is specifically dependent upon G5 domain-mediated self-assembly, soluble Brpt1.5 was added to S. epidermidis RP62A biofilms as a maltose-binding protein (MBP) fusion. Because of the higher Zn^2+ concentrations required to induce dimerization in the short construct compared to full-length Aap, inhibition by MBP-Brpt1.5 was tested at Zn^2+ concentrations ranging up to 1 mM. RP62A biofilms were inhibited by soluble MBP-Brpt1.5 in the presence of 0.75 and 1 mM ZnCl2, whereas addition of MBP alone had no effect (FIG. 4A). […] Thus, addition of even a single intact zinc adhesion module in a soluble form is capable of inhibiting biofilm formation, highlighting the role of this domain as a Zn^2+-dependent adhesion module in staphylococcal biofilms.

[2] = system: Methicillin-Resistant Staphylococcus aureus Strain USA300; test: Biofilm formation assay in fibronectin pre-treated 96 well plates, crystal violet (Example 11); format: cell-based; conditions: USA300, 2% glucose, 36-40 hours
Description: S. aureus strain USA300 was obtained from Daniel Hassett (University of Cincinnati) as a glycerol stock. 3 ml overnight cultures were grown in blood-heart infusion broth (BHI) shaking at 37° C., where cultures were diluted 1:25 for use in the biofilm assay. 2% glucose (20 ul from a 20% glucose stock) was added to each well prior to the addition of bacterial culture to promote biofilm formation. In addition, 96 well microtiter plates were pre-treated with human fibronectin (BD biomedical purchased from Fisher scientific). The fibronectin was aspirated prior to addition of chelators and glucose for the assay. Each chelator (prepared in Examples 1-6) was added directly to a 96 well microtiter plate in a series of dilutions. 20 μl of each stock solution (200, 400, 800, 1600, 3200, 6400, 13000, or 26000 μM chelator) was added to each well. 200 μl of the 1:25 dilution of USA300 bacterial culture dilution (as previously specified) were added to each well. Controls with bacterial culture media only and bacterial culture media plus vehicle controls only (final concentrations 10 mM HCl, 10% ethanol, and 10 mM NaOH) were added to wells alone without chelator. The 96 well plates were then incubated 36-40 hours statically at 37° C. Media was aspirated by pipet and wells were washed twice with filtered water. The plates were dried by inversion for 1 hour, and stained with 0.1% crystal violet for 15 minutes. Crystal violet was then aspirated by pipet and washed once with filtered water. The plates were then read on a spectrophotometer at a wavelength of 570 nm. An absorbance greater than 0.1 indicates biofilm formation.

[3] = system: Methicillin-Resistant Staphylococcus epidermidis Strain RP62a; test: Biofilm formation assay in 96 well plates, crystal violet, absorbance at 570 nm (Example 8); format: cell-based; conditions: 18-24 hours, 37° C.
Description: S. epidermidis strain RP62a (ATCC 35984) was obtained as a glycerol stock from ATCC. 3 ml overnight cultures were grown in tryptic soy broth (TSB, BD Biomedical), shaking at 37° C., and cultures were diluted 1:200 in TSB for use in the biofilm assay.
Each chelator (prepared in Examples 1-6) was added directly to a 96 well microtiter plate in a series of dilutions. 20 μl of each stock solution (200, 400, 800, 1600, 3200, 6400, 13000, or 26000 μM chelator) was added to each well. 200 μl of the 1:200 dilution of RP62a bacterial culture (as previously specified) was added to each well. Controls with bacterial culture media only and bacterial culture media plus vehicle controls only (i.e., final concentrations 10 mM HCl, 10% ethanol, or 10 mM NaOH) were added to wells alone without chelator. The 96 well plates were then incubated 18-24 hours statically at 37° C. Media was aspirated by pipet and wells were washed twice with filtered water. The plates were dried by inversion for 1 hour, and stained with 0.1% crystal violet for 15 minutes. Crystal violet was then aspirated by pipet and washed once with filtered water. The plates were then read on a spectrophotometer at a wavelength of 570 nm. An absorbance greater than 0.1 indicates biofilm formation.

[4] = system: Staphylococcus aureus Strain Rosenbach SA113; test: Biofilm formation assay in FBS pre-treated 96 well plates, crystal violet (Example 9); format: cell-based; conditions: SA113, 2% glucose, 36-40 hours
Description: In addition, 96 well microtiter plates were pre-treated with fetal bovine serum (FBS) at 4° C. for at least 24 hours prior to use. The FBS was aspirated prior to addition of chelators and glucose for the assay. […] The 96 well plates were then incubated 36-40 hours statically at 37° C. Media was aspirated by pipet and wells were washed twice with filtered water. The plates were dried by inversion for 1 hour, and stained with 0.1% crystal violet for 15 minutes. Crystal violet was then aspirated by pipet and washed once with filtered water. The plates were then read on a spectrophotometer at a wavelength of 570 nm.

[5] = target: Aap (Accumulation-associated protein) on Staphylococcus epidermidis strain RP62A cells (Staphylococcus epidermidis); test: cell-based or functional assay
[6] = system: Staphylococcus aureus Strain COL; test: Biofilm formation assay in FBS pre-treated 96 well plates, crystal violet (Example 10); format: cell-based; conditions: 2% sucrose, 36-40 hours
Description: 3 ml overnight cultures were grown in blood-heart infusion broth (BHI) shaking at 37° C., where cultures were diluted 1:25 for use in the biofilm assay.
2% sucrose (20 μl from a 20% sucrose stock) was added to each well prior to the addition of the bacterial culture to promote biofilm formation. In addition, 96 well microtiter plates were pre-treated with fetal bovine serum (FBS) at 4° C. for at least 24 hours prior to use. The FBS was aspirated prior to addition of chelators and sucrose for the assay. […] 20 μl of each stock solution (200, 400, 800, 1600, 3200, 6400, 13000, or 26000 μM chelator) was added to each well. 200 μl of the 1:25 dilution of COL bacterial culture (as previously specified) was added to each well. Controls with bacterial culture media only and bacterial culture media plus vehicle controls only (i.e, final concentrations 10 mM HCl, 10% ethanol, and 10 mM NaOH) were added to wells alone without chelator. The 96 well plates were then incubated 36-40 hours statically at 37° C. Media was aspirated by pipet and wells were washed twice with filtered water. The plates were dried by inversion for 1 hour, and stained with 0.1% crystal violet for 15 minutes. Crystal violet was then aspirated by pipet and washed once with filtered water. The plates were then read on a spectrophotometer at a wavelength of 570 nm. An absorbance greater than 0.1 indicates biofilm formation.

[7] = system: Methicillin-resistant S. aureus USA300 biofilms; test: USA300 biofilms on fibronectin-coated plates (FIG. 3B, 3D); format: cell-based; conditions: USA300, at minimal inhibitory dose of DTPA (30 μM), FIG. 3D
Description: as §1
S. aureus strain USA300, which is responsible for recent epidemic outbreaks of community-acquired methicillin-resistant S. aureus (MRSA) infections, formed biofilms on fibronectin-coated plates. As observed for S. epidermidis, the MRSA biofilms were inhibited by Zn^2+ chelation (≧30 μM DTPA) (FIG. 3B). […] Like S. epidermidis, the MRSA strain USA300 could be rescued by the addition of 15-20 μM ZnCl2 (FIG. 3D). Importantly, at the minimal inhibitory concentration of DTPA (30 μM), biofilm growth by both staphylococcal species could be rescued by the addition of 5-20 μM ZnCl2; these Zn^2+ concentrations are similar to the physiological range in human plasma (12-16 μM resting concentration).

Molecule	effect of divalent cation salt on biofilm inhibition by DTPA ([1]; 30 μM DTPA)	chelator concentration at which biofilms were inhibited (absorbance of 0.1 or less) [3]	chelator concentration at which biofilms were diminished but not cleared [4]	chelator concentration at which biofilms were inhibited (absorbance of 0.1 or less) [4]	chelator concentration at which biofilms were diminished but not cleared [6]	chelator concentration at which biofilms were diminished but not cleared [3]	further results
[Cl][Mn][Cl] [MnCl2]	partial rescue	–	–	–	–	–	concentration that effected partial rescue of biofilm formation ([1]; 30 μM DTPA, FIG. 7D): ≥ 10 µM
c1ccc(CN(CCN(Cc2ccccn2)Cc2ccccn2)Cc2ccccn2)nc1 [TPEN, N,N,N′,N′-tetrakis(2-pyrdiylmethyl)ethylenediamine]	–	20 µM	20 µM	40 µM	–	–	chelator concentration at which biofilms were diminished but not cleared [2]: 20 µM
MBP-Brpt1.5 (soluble Brpt1.5 as a maltose-binding protein fusion) (from UniProt Q8CQD9 1089-1296)	–	–	–	–	–	–	concentration that completely abolished RP62A biofilm formation at 1 mM ZnCl2 [5]: 10 µM and 22 µM
O=C(O)CNCCNCC(=O)O [EDDA, ethylenediamine-N,N′-diacetic acid]	–	–	20 µM	640 µM	160 µM	80 µM	–
c1cnc2c(c1)ccc1cccnc12 [1,10-phenanthroline]	–	640 µM	320 µM	1300 µM	80 µM	80 µM	chelator concentration above which biofilms were inhibited (absorbance of 0.1 or less) [6]: > 320 µM; chelator concentration above which biofilms were inhibited (absorbance of 0.1 or less) [2]: > 1.3 mM; chelator concentration at which biofilms were diminished but not cleared [2]: 160 µM
[Cl-].[Cl-].[Zn+2] [ZnCl2]	–	–	–	–	–	–	concentration that rescues biofilm formation [7]: 15 to 20 µM; concentration that rescues biofilm formation ([1]; at minimal inhibitory dose of DTPA (30 μM), FIG. 3C): 5 to 20 µM
[Cl-].[Cl-].[Sr+2] [SrCl2]	does not reverse; also recorded: no effect	–	–	–	–	–	–
[Ca+2].[Cl-].[Cl-] [CaCl2]	does not reverse; also recorded: no effect	–	–	–	–	–	–
O=C(O)CN(CCN(CC(=O)O)CC(=O)O)CC(=O)O [EDTA, ethylenediaminetetra-acetic acid]	–	320 µM	320 µM	–	20 µM	40 µM	chelator concentration above which biofilms were inhibited (absorbance of 0.1 or less) [6]: > 160 µM; chelator concentration above which biofilms were inhibited (absorbance of 0.1 or less) [2]: > 2.6 mM; chelator concentration at which biofilms were diminished but not cleared [2]: 1300 µM
[Cl-].[Cl-].[Mg+2] [MgCl2]	does not reverse; also recorded: no effect	–	–	–	–	–	–
CCN(CC)C(=S)S [DEDTC, diethyldithiocarbamate]	–	1300 µM	80 µM	80 µM	20 µM	20 µM	chelator concentration above which biofilms were inhibited (absorbance of 0.1 or less) [6]: > 80 µM
B1	–	–	–	–	–	–	inhibition of biofilms by soluble protein ([1]; fixed 750 μM ZnCl2, FIG. 8): Dose-dependent biofilm inhibition; concentration that completely abolished biofilm formation ([1]; fixed 1 mM ZnCl2, FIG. 4B): 10 to 22 µM; inhibition of biofilms by soluble protein ([1]; in the presence of 0.75-1 mM ZnCl2, FIG. 4A): inhibits RP62A biofilms in a dose-dependent manner; also recorded: inhibited
